According to patent US5681823A, “P^1, P^4 -dithio-P^2 -P^3 -monochloromethylene 5', 5'"-diadenosine P^1, P^4 -tetraphosphate as antithrombotic agent” (PRP Inc., priority 1996, dated 1997):
Read-outs that look alike come from different tables or passages of the source.

Columns and labels:
[1] = Molecular stability in whole blood (HPLC of blood extracts); format: in vitro ADME, human; conditions: for Main Peak / Total / X1 (second peak) / X2 (second peak): 250 μM agent, mean of two
Protocol: To test the molecular stability of the agents, blood was incubated with each agent at […] for 4 hours. Samplings at the indicated incubation times were extracted and CHC -AP4 A or thio-CHCl-AP4 A were assayed in an HPLC (Waters 600E pump and controller) with quartenary amine anion exchange column (Whatman Partisil 10) and analysed (Beckman System Gold). The retention times for CHCl-AP4 A and thio-CHCl-AP4 A were 3.39 and 5.95, respectively. Peak areas were integrated and used to construct a standard curve for a concentration range (1, 2, 4, 6, 8 and 10 μM). Both CHCl-AP4 A and thio-CHCl-AP4 A were pure, as observed by a single peak on HPLC, and by a linear relationship between the concentration of the agent and HPLC peak areas. Normal human blood anticoagulated with 0.38% sodium citrate was incubated in the presence of250 μM CHCl-AP4 A or thio-CHCl-AP4 A at […] for 4 hours. Blood samples were extracted with 3% perchloric acid and neutralized with K2 CO3. The extracts were kept at -80° C. until an assay using an HPLC. The values in Table 9 represent a mean of two experiments and are expressed in nmol/ml blood. […] An estimated quantity of CHCl-AP4 A major peak indicated a slow degradation showing a reduction of 30% after 4 hours incubation. At least 80% of degradation product, possibly chloromethylene monoadenosine triphosphate (AppCp) is associated with the second peak (X1). […] The second peak of the blood extract with thio-CHCl-AP4 A may be an isomer (X2), e.g., monothio compound (Aps pCppA or AppCpps A). It was not detected by HPLC of the pure compound, but registered a small portion (<10%) in the blood extraction at time 0 and about 20% of the major peak thereafter.

[2] = test system: ADP-induced platelet aggregation; assay: Time-dependent effects on ADP-induced aggregation (stability of the agents by functional assay in PRP); format: cell-based, human; conditions: for ADP-induced aggregation: 10 μM ADP; for stability of inhibitory effect / agent in PRP: 37° C., up to 3 hours, in words
Protocol: (§1) Unless otherwise provided below, the experimental procedures were performed according to the procedures provided in U.S. Pat. No. 5,049.550 (Zamecnik '550), the entire contents of which are incorporated herein by reference. Some alternative procedures (e.g., release reaction, PF3 assays) and a number of additional studies also are provided (e.g., cytoplasmic calcium mobilization, fibrinogen binding site, agonists other than ADP, platelet cAMP and distribution of CHCl-AP4 A into blood components). Blood was collected in a 0.1 volume of 3.8% sodium citrate from healthy human volunteers who had abstained from antiplatelet agents for at least 10 days. Platelet rich plasma (PRP) was separated by a gradual centrifugation and adjusted to 3.3×10^8 platelets per ml plasma. PRP has been utilized in the Examples unless otherwise stated.
To observe the stability of the agents by functional assay, PRP was incubated with 2.51 μM thio-CHCl-AP4 A or 5 μM CHCl-AP4 A at 37° C. for 3 hours. The concentrations of inhibiting agents used in this experiment were relatively low, especially for the thio compound. Samples taken at the times indicated were tested for ADP-induced (10 μM) aggregation.

[3] = test system: fibrinogen receptor (GPIIb/IIIa); assay: Fibrinogen binding sites on ADP-activated platelets (FITC-anti-fgn, flow cytometer); format: cell-based, human; conditions: for % binding (fibrinogen bound on ADP-activated platelets): 5 μM ADP
Protocol: Platelet responses to the agonists include in addition to aggregation a) release reaction, b) fibrinogen receptor silos (GPIIb/IIIa) and, c) platelet factor 3 activation. The effects of thio-CHCl-AP4 A and the reference agent (CHCl-AP4 A, compound E10 of Zamecnik '550) were tested on each of these responses.
Platelet surface receptors for fibrinogen are known to be increased by activation. The effects of thio-CHCl-AP4 A and CHCl-AP4 A on fibrinogen binding sites of activated platelets were assayed by means of Fluorescein isothiocyanate conjugated antifibrinogen antibody (FITC-anti-fgn) techniques in a flow cytometer (FACS, Becton-Dickinson). PRP was used at 1:20 final dilution. Platelets were activated by ADP in the presence or absence of the agents at 22° C. for 5 min. After incubation of activated platelets with FITC-Anti-Fgn at 22° C. for 10 min., 0.5 ml of 0.2% formyl saline (0.2% formaldehyde in 0.9% NaCl) was added to inhibit further activation. Samples included platelets that were a) unstimulated; b) stimulated with 5 μM ADP; c) exposed to agents (CHCl-AP4 A or thio-CHCl-AP4 A) for 5 minutes before ADP stimulation.

[4] = Distribution of ^125 I-labeled CHCl-AP4 A: plasma & washes; format: binding, human; conditions: 23 μM, 22° C., 30 minutes; mean of two
Protocol: There are, however, a variety of purinoceptors on other cell types. AP4 A analogues may bind not only to platelets but also to the erythrocytes and leukocytes when whole blood is treated with the agents. […] Platelets were separated by a gradual centrifugation, the packed red cells with buffy coats (leukocytes) were mixed, and fractionated by means of histopaque gradient separation (A. Boyum, Scand J. Clin. Lab. Invest. 21(suppl 97):77 (1968)). The cell fractions were washed twice and final suspensions were counted for cell number and the radioactivity. Percent distribution was calculated based on the CBC data of whole blood. Binding sites are expressed in the values per cells.

[5] = test system: Cytoplasmic Calcium Ion (Ca^++) Mobilization in platelets; assay: Cytoplasmic calcium ion mobilization in platelets (Indo-1, flow cytometer); format: cell-based, human; conditions: 6.7 μM ADP
Protocol: as §1
An increment of cytoplasmic Ca^++ in the platelets represents an activated state. Indo-1 acetomethyl ester (Indo-1) commonly has been utilized as the reagent to detect intracellular free Ca^++. Indo-1 reacts with Ca^++ and produces fluorescence which can be monitored in a dual wavelength (408/485) flow cytometer (Coulter EPIC Systems). Platelets were incubated with Indo-1 at 37° C. for 45 min. Excess Indo-1 in the medium was removed by gel-filtration method. Indo-1-loaded platelets were then activated by 6.7 μM ADP in the absence or presence of thio-CHCl-AP4 A (3.3 μM) or CHCl-AP4 A (6.7 μM). Fluorescence intensity of the platelets was monitored and plotted against platelet number. The histograms generated from the plots were analyzed. Unstimulated platelets registered fluorescence intensity (FI) between 42 and 250 with a peak at 133 (base line control).

## Nc1ncnc2c1ncn2[C@@H]1O[C@H](COP(=O)(O)OP(=O)(O)C(Cl)P(=O)(O)OP(=O)(O)OC[C@H]2O[C@@H](n3cnc4c(N)ncnc43)[C@H](O)[C@@H]2O)[C@@H](O)[C@H]1O (some centres unmarked) [CHCl-AP4 A]
[1]; 0 min
  Main Peak: 249.2 nmol/ml blood
  Total: 249.2 nmol/ml blood
  X1 (second peak): trace
[1]; 60 min
  Main Peak: 249.0 nmol/ml blood
  Total: 274.8 nmol/ml blood
  X1 (second peak): 25.8 nmol/ml blood
[1]; 120 min
  Main Peak: 222.0 nmol/ml blood
  Total: 258.6 nmol/ml blood
  X1 (second peak): 36.6 nmol/ml blood
[1]; 240 min
  Main Peak: 173.2 nmol/ml blood
  Total: 236.3 nmol/ml blood
  X1 (second peak): 63.3 nmol/ml blood
[1]; human, blood, 60 minutes, read-out: Total extraction efficiency
  recovery at 1 h, 250 µM: 110%
[1]; human, blood, after 4 hours incubation, read-out: reduction of major peak (slow degradation)
  metabolised at 4 h, 250 µM: 30%
[1]; whole blood
  degradation product associated with the second peak (X1): At least 80%
[2]; 5 μM agent, 0 min in PRP at 37° C., without agent 82%
  ADP-induced aggregation: 13%
[2]; 5 μM agent, 60 min in PRP at 37° C., without agent 69%
  ADP-induced aggregation: 31%
[2]; 5 μM agent, 120 min in PRP at 37° C., without agent 59%
  ADP-induced aggregation: 47%
[2]; 5 μM agent, 180 min in PRP at 37° C., without agent 43%
  ADP-induced aggregation: 42%
[2]
  stability of inhibitory effect / agent in PRP: becomes unstable when it is kept in PRP more than 60 minutes at 37 °C
[3]; 2.5 μM agent
  % binding (fibrinogen bound on ADP-activated platelets): 70.9 % binding
[3]; 5.0 μM agent
  % binding (fibrinogen bound on ADP-activated platelets): 41.3 % binding
[3]; 7.5 μM agent
  % binding (fibrinogen bound on ADP-activated platelets): 36.1 % binding
[3]; 10 μM agent
  % binding (fibrinogen bound on ADP-activated platelets): 23.8 % binding
[4]
  Distribution (%): 95.5%
[5]; 6.7 μM CHCl-AP4 A
  effect on ADP-induced Ca^++ mobilization: blocked completely

## Nc1ncnc2c1ncn2[C@@H]1O[C@H](COP(O)(=S)OP(=O)(O)C(Cl)P(=O)(O)OP(O)(=S)OC[C@H]2O[C@@H](n3cnc4c(N)ncnc43)[C@H](O)[C@@H]2O)[C@@H](O)[C@H]1O (some centres unmarked) [Thio-CHCl-AP4 A, P^1, P^4 -dithio -P^2 -P^3 monochloromethylene 5', 5'" diadenosine P^1, P^4 -tetraphosphate]
[1]; 0 min
  Main Peak: 157.7 nmol/ml blood
  Total: 172.0 nmol/ml blood
  X2 (second peak): 14.3 nmol/ml blood
[1]; 60 min
  Main Peak: 172.3 nmol/ml blood
  Total: 205.9 nmol/ml blood
  X2 (second peak): 33.6 nmol/ml blood
[1]; 120 min
  Main Peak: 180.0 nmol/ml blood
  Total: 211.4 nmol/ml blood
  X2 (second peak): 31.4 nmol/ml blood
[1]; 240 min
  Main Peak: 173.7 nmol/ml blood
  Total: 202.0 nmol/ml blood
  X2 (second peak): 38.3 nmol/ml blood
[1]; after time 0
  second peak (X2), % of the major peak: about 20 % of the major peak
[1]; at least 4 hours at 37° C., in words
  stability in blood: very stable in blood for at least 4 hours at 37 °C
[1]; human, blood, 120 minutes, read-out: Total extraction efficiency
  recovery at 2 h, 250 µM: 85%
[1]; human, blood, samples after 60 minutes, read-out: Extraction efficiency
  recovery at 1 h, 250 µM: 81 to 85%
[1]; human, blood, time 0, read-out: Extraction efficiency
  recovery at 0 h, 250 µM: 69%
[1]; time 0
  second peak (X2) portion in the blood extraction: < 10%
[2]; 2.5 μM agent, 0 min in PRP at 37° C., without agent 82%
  ADP-induced aggregation: 21%
[2]; 2.5 μM agent, 60 min in PRP at 37° C., without agent 69%
  ADP-induced aggregation: 7%
[2]; 2.5 μM agent, 120 min in PRP at 37° C., without agent 59%
  ADP-induced aggregation: 5%
[2]; 2.5 μM agent, 180 min in PRP at 37° C., without agent 43%
  ADP-induced aggregation: 6%
[2]
  stability of inhibitory effect / agent in PRP: very stable for at least a 3 hour period
[3]; 2.5 μM agent
  % binding (fibrinogen bound on ADP-activated platelets): 9.9 % binding
[3]; 5.0 μM agent
  % binding (fibrinogen bound on ADP-activated platelets): 5.3 % binding
[3]; compared to CHCl-AP4 A, in words
  inhibition of fibrinogen bound on ADP-activated platelets: inhibited preferentially
[5]; 3.3 μM thio-CHCl-AP4 A
  effect on ADP-induced Ca^++ mobilization: blocked completely
